“And” between values parts separate entries of the source, which are not always exact repeats. Identical values can stand only once. Like-named read-outs stand apart in the source and are kept apart here.
Molecular target: T1, γ-secretase (Homo sapiens, UniProt P49768)
T1 construct: γ-Secretase is composed of four subunits: Aph1, Pen2, glycosylated nicastrin, and endo-proteolyzed presenilin as the catalytic core; endogenous in cells; host or cells: HeLa S3 (ATCC CCL-2.2)
Assay: Aβ 1–40 secretion from HeLa cells in the presence of DAPT (sandwich ELISA), dose-response fits
Format: cell-based
Conditions: for EC50: read-out: Activation EC50; for IC50: read-out: Inhibition IC50; for Maximal Activity that can be achieved by transfection (Aβ 1-40 secreted): HeLa transfected with cDNAwtC99
Description: HeLa cells have been transfected using Lipofectamine LTX™ reagent following the manufacturer instructions. The transfection protocol and concentration of pSG5-cDNAwtC99 plasmid have been optimized to achieve desired assay sensitivity, a gradual increase in the substrate expression level, and a smooth transition from biphasic to the standard dose-response curves (Figs. 2–3). Initially concentration of pSG5-cDNAwtC99 plasmid have been optimized by western blots using anti-flag αM2 monoclonal antibody as described in our previous study. The cells were transfected in 24-well plates. The day before transfection the cells were trypsinized and counted. About 0.85×10^5 cells were seeded per well in 0.5 ml of complete growth medium to achieve about 75% confluent cultures on the day of transfection. Before the transfection old medium was removed and replaced with fresh 0.5 ml of complete growth medium. For transfection 5X DNA concentration was diluted in 500 µl of Opti-MEM®I Reduced Serum Media and mixed with 0.7 µl of Lipofectamine LTX™ Reagent. The solution was gently mixed and incubated for 30 minutes at room temperature to form DNA- Lipofectamine LTX™ Reagent complexes. Following the 30 min incubation, 100 µl of the DNA- Lipofectamine LTX™ Reagent complexes was added directly to each well containing cells and mixed gently by rocking the plate back and forth. The cells were incubated at 37°C in a CO2 incubator for 18 hours.
Fresh medium was added 18 hours after the transfection (0.5 ml per well), to prepare the cells for incubation with DAPT [18], [51]. Different concentrations of DAPT were prepared in DMSO, and added to the cells so that the final DMSO concentration in the culture was 0.1% (v/v). DMSO vehicle represents 0 nM DAPT. The cells were incubated with DAPT at given concentrations for 15 hours.
The assay linear response is in the range from 6–125 pM of Aβ 1–40. The assays were performed by closely following the manufacturer instructions. […] Each well was filled with 50 µl of the antibody conjugate solution and 50 µl of sample. The Aβ 1–40 standards were supplied by the manufacturer and prepared in parallel with other samples. All of the prepared wells were wrapped in aluminum foil and incubated overnight at 4°C with gentle mixing. The next day each well was washed five times with 300 µl of wash solution. After each […] wash, the wash solution was poured out and the wells were dried by tapping the plates on an absorbing paper. Washed wells were filled with 100 µl of the enzyme conjugate solution, covered, and incubated for 30 min at room temperature with shaking. The washing procedure was repeated once again to remove excess of the enzyme-conjugate. Next 100 µl of the substrate solution was added in each well in dark, and kept for 30 minutes covered at room temperature. The reaction was quenched by adding 50 µl of stop solution to each well, and within 15 min the signal intensity was read by measuring absorption at 450 nm.
All experimental results were analyzed using MicroCal Origin 7.0 program, nonlinear regressions, and equations that represent specific mechanism. All results are reported as the best fit value ± standard error with two-sigma confidence intervals shown in square brackets (i.e. x±y [p, q]). Briefly, the standard error indicates random errors (i.e. precision) for each method, while the two sigma confidence intervals indicate the ability of given experimental setup to provide information about specific best-fit parameter. The random error for presented experiments is low, as indicated by a low scatter from the best fit values. The sharp confidence intervals can be obtained by taking a large number of independent data points that cover all segments that define the measured functions. […]

[1] = Aβ 1-40 secreted, untransfected HeLa cells, eqn. 1, six free fit parameters
[2] = Aβ 1-40 secretion, untransfected HeLa cells, eqn. 1, six free fit parameters
[3] = HeLa, 0 ng/mL pSG5-cDNAwtC99, eqn. 1
[4] = HeLa, 15 ng/mL pSG5-cDNAwtC99, eqn. 1
[5] = HeLa, 25 ng/mL pSG5-cDNAwtC99, eqn. 1
[6] = HeLa, 61 ng/mL pSG5-cDNAwtC99, eqn. 1
[7] = HeLa, 92 ng/mL pSG5-cDNAwtC99, eqn. 1

T1 sequence (Q9NZ42 whole entry, other chains not shown): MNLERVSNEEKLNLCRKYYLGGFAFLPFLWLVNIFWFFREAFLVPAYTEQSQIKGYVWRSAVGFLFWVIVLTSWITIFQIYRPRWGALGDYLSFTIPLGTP
T1 sequence (Q92542 34-709, other chains not shown, further chain): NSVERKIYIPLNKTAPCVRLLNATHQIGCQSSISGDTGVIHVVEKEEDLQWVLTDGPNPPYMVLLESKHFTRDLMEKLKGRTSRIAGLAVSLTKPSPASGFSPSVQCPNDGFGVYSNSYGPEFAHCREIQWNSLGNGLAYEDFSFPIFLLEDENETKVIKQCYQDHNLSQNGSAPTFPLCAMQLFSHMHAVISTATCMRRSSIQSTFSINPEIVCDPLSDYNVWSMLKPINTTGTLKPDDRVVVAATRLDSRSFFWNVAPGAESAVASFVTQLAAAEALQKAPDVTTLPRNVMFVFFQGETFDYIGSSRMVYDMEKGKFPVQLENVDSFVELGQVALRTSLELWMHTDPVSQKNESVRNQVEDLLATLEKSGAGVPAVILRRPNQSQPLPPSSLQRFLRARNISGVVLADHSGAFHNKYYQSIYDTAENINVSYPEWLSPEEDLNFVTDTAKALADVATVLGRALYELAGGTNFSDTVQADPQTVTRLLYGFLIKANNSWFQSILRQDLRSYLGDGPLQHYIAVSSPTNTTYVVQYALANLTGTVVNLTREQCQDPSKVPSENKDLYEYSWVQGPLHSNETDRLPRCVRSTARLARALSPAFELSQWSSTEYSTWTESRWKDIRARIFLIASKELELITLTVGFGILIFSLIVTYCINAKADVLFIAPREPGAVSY
T1 sequence (Q96BI3 whole entry, other chains not shown, further chain): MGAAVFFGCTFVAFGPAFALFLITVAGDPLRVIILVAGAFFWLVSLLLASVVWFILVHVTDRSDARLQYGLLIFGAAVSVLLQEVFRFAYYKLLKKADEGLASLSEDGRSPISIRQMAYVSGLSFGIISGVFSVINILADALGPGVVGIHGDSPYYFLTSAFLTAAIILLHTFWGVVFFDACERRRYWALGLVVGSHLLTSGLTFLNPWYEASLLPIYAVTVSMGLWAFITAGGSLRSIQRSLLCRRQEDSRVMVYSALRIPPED

C[C@H](NC(=O)Cc1cc(F)cc(F)c1)C(=O)N[C@H](C(=O)OC(C)(C)C)c1ccccc1 [DAPT, N-[N-(3,5-difluorophenacetyl)-L-alanyl]-S-phenylglycine t-butyl ester]
Endogenous activity as percentage of maximal activity achieved by transfection (33 nM DAPT): 40% and 39.7% | cDNAwtC99 required to reach maximal activity (33 nM DAPT): 192 ng/mL and 191.0 ng/mL | Endogenous activity as percentage of maximal activity achieved by transfection (100 nM DAPT): 72% and 72.5% | cDNAwtC99 required to reach maximal activity (100 nM DAPT): 92.7 ng/mL | Endogenous activity as percentage of maximal activity achieved by transfection (333 nM DAPT): 92.1% | cDNAwtC99 required to reach maximal activity (333 nM DAPT): 59.8 ng/mL | Endogenous activity as percentage of maximal activity achieved by transfection (500 nM DAPT): 89.3% | cDNAwtC99 required to reach maximal activity (500 nM DAPT): 39.2 ng/mL | Endogenous activity as percentage of maximal activity achieved by transfection (1000 nM DAPT): 96.2% | cDNAwtC99 required to reach maximal activity (1000 nM DAPT): 14.0 ng/mL | Initial Activity, IA (Aβ 1-40 secreted, untransfected HeLa cells, endogenous substrate, activity at inhibitor concentration zero, eqn. 1, six free fit parameters): 31 ± 4 pM per 10^6 cells | Maximal Activity (MA), calculated activation plateau [1]: 196 pM per 10^6 cells and 196 ± 80 pM per 10^6 cells | Maximal Inhibition, MI [1]: 0.5 ± -3.4 pM per 10^6 cells | EC50 [2]: 72 ± 20 nM | IC50 [2]: 472 ± 95 nM | Maximal Activity that can be achieved by transfection (Aβ 1-40 secreted) (33 nM DAPT): 204.5 pM per 10^6 cells | Maximal Activity that can be achieved by transfection (Aβ 1-40 secreted) (100 nM DAPT): 182 pM per 10^6 cells and 182.0 pM per 10^6 cells | Maximal Activity that can be achieved by transfection (Aβ 1-40 secreted) (333 nM DAPT): 140.0 pM per 10^6 cells | Maximal Activity that can be achieved by transfection (Aβ 1-40 secreted) (500 nM DAPT): 125.0 pM per 10^6 cells | Maximal Activity that can be achieved by transfection (Aβ 1-40 secreted) (1000 nM DAPT): 44.7 pM per 10^6 cells | Activation Hill coef. [3]: 1.04 ± 0.2 | Inhibition Hill's coef [3]: 2 ± 0.3 | Maximal Activity, MA [3]: 217 ± 110 pM per 10^6 cells | Maximal Inhibition, MI [3]: -1 ± 0.1 pM per 10^6 cells | Initial Activity, IA (HeLa, 0 ng/mL pSG5-cDNAwtC99, eqn. 1, activity at zero DAPT): 32 ± 3 pM per 10^6 cells | EC50 [3]: 89 ± 17 nM | IC50 [3]: 407 ± 34 nM | Activation Hill coef. [4]: 1.08 ± 0.2 | Inhibition Hill's coef [4]: 2.4 ± 0.3 | Maximal Activity, MA [4]: 172 ± 90 pM per 10^6 cells | Maximal Inhibition, MI [4]: 0.33 ± 0.7 pM per 10^6 cells | Initial Activity, IA (HeLa, 15 ng/mL pSG5-cDNAwtC99, eqn. 1, activity at zero DAPT): 41 ± 3 pM per 10^6 cells | EC50 [4]: 71 ± 21 nM | IC50 [4]: 588 ± 35 nM | Activation Hill coef. [5]: 1.0 ± 0.1 | Inhibition Hill's coef [5]: 2.2 ± 0.4 | Maximal Activity, MA [5]: 205 ± 80 pM per 10^6 cells | Maximal Inhibition, MI [5]: -0.2 ± 0.1 pM per 10^6 cells | Initial Activity, IA (HeLa, 25 ng/mL pSG5-cDNAwtC99, eqn. 1, activity at zero DAPT): 51 ± 5 pM per 10^6 cells | EC50 [5]: 110 ± 34 nM | IC50 [5]: 524 ± 71 nM | Activation Hill coef. [6]: 1.13 ± 0.6 | Inhibition Hill's coef [6]: 2.3 ± 0.5 | Maximal Activity, MA [6]: 180 ± 145 pM per 10^6 cells | Maximal Inhibition, MI [6]: 1.2 ± 0.2 pM per 10^6 cells | Initial Activity, IA (HeLa, 61 ng/mL pSG5-cDNAwtC99, eqn. 1, activity at zero DAPT): 91 ± 6 pM per 10^6 cells | EC50 [6]: 107 ± 36 nM | IC50 [6]: 489 ± 62 nM | Activation Hill coef. [7]: 0.92 ± 0.3 | Inhibition Hill's coef [7]: 1.7 ± 0.6 | Maximal Activity, MA [7]: 170 ± 95 pM per 10^6 cells

Source: PMC3538728 (PLoS ONE, 2013)
